According to patent US9994571B2, “10-substituted morphinan hydantoins” (Purdue Pharma L.P., priority 2013, dated 2018):
Like-named read-outs stand apart in the source and are kept apart here.

Experiments:
μ-opioid receptor [1] = target: T1, μ-opioid receptor (Homo sapiens (Human), UniProt P35372); assay: μ-opioid receptor radioligand dose-displacement binding assay ([3H]-diprenorphine); conditions: binding assays using HEK-293 cells
Protocol: Radioligand dose-displacement binding assays for μ-opioid receptors used 0.3 nM [^3H]-diprenorphine (Perkin Elmer, Shelton, Conn.), with […] membrane protein/well in a final volume of 500 μl binding buffer (10 mM MgCl2, 1 mM EDTA, 5% DMSO, 50 mM HEPES, pH 7.4). Reactions were carried out in the absence or presence of increasing concentrations of unlabeled naloxone. All reactions were conducted in 96-deep well polypropylene plates for 2 hours at room temperature. Binding reactions were terminated by rapid filtration onto 96-well Unifilter GF/C filter plates (Perkin Elmer, Shelton, Conn.), presoaked in 0.5% polyethylenimine using a 96-well tissue harvester (Perkin Elmer, Shelton, Conn.) followed by performing three filtration washes with 500 μl of ice-cold binding buffer. Filter plates were subsequently dried at 50° C. for 2-3 hours. BetaScint scintillation cocktail (Perkin Elmer, Shelton, Conn.) was added (50 μl/well), and plates were counted using a Packard Top-Count for 1 min/well. The data were analyzed using the one-site competition curve fitting functions in GraphPad PRISM™ v. 3.0 or higher (San Diego, Calif.), or an in-house function for one-site competition curve-fitting.
(§1) In TABLE 1, binding affinity of certain Compounds of the Invention to the μ- and κ-opioid receptors was determined as described above for binding assays using HEK-293 cells.

κ opioid receptor [2] = target: T2, κ opioid receptor (Homo sapiens (Human), UniProt P41145); assay: κ-opioid receptor radioligand dose-displacement binding assay ([3H]-U69,593); conditions: binding assays using HEK-293 cells
Protocol: Membranes from HEK-293 cells, CHO or U-2 OS cells expressing the recombinant human κ opioid receptor (κ) were prepared by lysing cells in ice cold hypotonic buffer (2.5 mM MgCl2, 50 mM HEPES, pH 7.4) (10 mL/10 cm dish) followed by homogenization with a tissue grinder/Teflon pestle. Membranes from a cell line naturally expressing kappa opioid receptor can also be used. Membranes were collected by centrifugation at 30,000×g for 15 min at 4° C. and pellets were resuspended in hypotonic buffer to a final concentration of 1-3 mg/mL. Protein concentrations were determined using the BioRad protein assay reagent with bovine serum albumen as standard. Aliquots of K receptor membranes were stored at −80° C.
Radioligand dose displacement assays used 0.4 nM [^3H]-U69,593 (GE Healthcare, Piscataway, N.J.; 40 Ci/mmole) with 15 μg membrane protein (recombinant κ opioid receptor expressed in HEK 293 cells; in-house prep) in a final volume of 200 μl binding buffer (5% DMSO, 50 mM Trizma base, pH 7.4). Non-specific binding was determined in the presence of 10 μM unlabeled naloxone or U69,593. All reactions were performed in 96-well polypropylene plates for 1 hour at a temperature of about 25° C. Binding reactions were terminated by rapid filtration onto 96-well Unifilter GF/C filter plates (Perkin Elmer, Shelton, Conn.) presoaked in 0.5% polyethylenimine (Sigma). Harvesting was performed using a 96-well tissue harvester (Perkin Elmer, Shelton, Conn.) followed by five filtration washes with 200 μl ice-cold binding buffer. Filter plates were subsequently dried at 50° C. for 1-2 hours. Fifty μl/well scintillation cocktail (Perkin Elmer, Shelton, Conn.) was added and plates were counted in a Packard Top-Count for 1 min/well.
as §1

κ opioid receptor [3] = target: T2, κ opioid receptor; assay: κ-opioid receptor [35S]GTPγS functional assay; type: biochemical; conditions: for Emax: functional assays using U-2 OS cells, relative to the effect elicited by U69,593
Protocol: Functional [^35S]GTPγS binding assays were conducted as follows. κ opioid receptor membrane solution was prepared by sequentially adding final concentrations of 0.026 μg/μl κ membrane protein (in-house), 10 μg/mL saponin, 3 μM GDP and 0.20 nM [^35S]GTPγS to binding buffer (100 mM NaCl, 10 mM MgCl2, 20 mM HEPES, pH 7.4) on ice. The prepared membrane solution (190 μl/well) was transferred to 96-shallow well polypropylene plates containing 10 μl of 20× concentrated stock solutions of agonist prepared in DMSO. Plates were incubated for 30 min at a temperature of about 25° C. with shaking. Reactions were terminated by rapid filtration onto 96-well Unifilter GF/B filter plates (Perkin Elmer, Shelton, Conn.) using a 96-well tissue harvester (Packard) and followed by three filtration washes with 200 μl ice-cold binding buffer (10 mM NaH2PO4, 10 mM Na2HPO4, pH 7.4). Filter plates were subsequently dried at 50° C. for 2-3 hours. Fifty μl/well scintillation cocktail (Perkin Elmer, Shelton, Conn.) was added and plates were counted in a Packard Top-Count for 1 min/well.
κ GTP EC50 is the concentration of a compound providing 50% of the maximal response for the compound at a K receptor.
κ GTP Emax (%) is the maximal effect elicited by a compound relative to the effect elicited by U69,593.
(§2) In TABLE 2, activity response of certain Compounds of the Invention to the μ- and κ-opioid receptors was determined as described above for functional assays using U-2 OS cells.

μ-opioid receptor [4] = target: T1, μ-opioid receptor; assay: μ-opioid receptor [35S]GTPγS functional assay; type: biochemical
Protocol: [^35S]GTPγS functional assays were conducted using freshly thawed μ-receptor membranes prepared in-house from a cell line expressing recombinant μ opioid receptor in a HEK-293, CHO or U-2 OS cell background, or purchased from a commercial source (Perkin Elmer, Shelton, Conn.; or DiscovRx, Fremont, Calif.). Assay reactions were prepared by sequentially adding the following reagents to binding buffer (100 mM NaCl, 10 mM MgCl2, 20 mM HEPES, pH 7.4) on ice (final concentrations indicated): membrane protein (0.026 mg/mL), saponin ([…]), GDP ([…]) and [^35S]GTPγS (0.20 nM; Perkin Elmer, Shelton, Conn.). The prepared membrane solution (190 l/well) was transferred to 96-shallow well polypropylene plates containing 10 μl of 20× concentrated stock solutions of the agonist [D-Ala^2, N-methyl-Phe^4 Gly-ol^5]-enkephalin (DAMGO) prepared in dimethyl sulfoxide (DMSO). Plates were incubated for 30 min at about 25° C. with shaking. Reactions were terminated by rapid filtration onto 96-well Unifilter GF/B filter plates (Perkin Elmer, Shelton, Conn.) using a 96-well tissue harvester (Perkin Elmer, Shelton, Conn.) followed by three filtration washes with 200 μl of ice-cold wash buffer (10 mM NaH2PO4, 10 mM Na2HPO4, pH 7.4). Filter plates were subsequently dried at 50° C. for 2-3 hours. BetaScint scintillation cocktail (Perkin Elmer, Shelton, Conn.) was added (50 μl/well) and plates were counted using a Packard Top-Count for 1 min/well. Data were analyzed using the sigmoidal dose-response curve fitting functions in GraphPad PRISM v. 3.0, or an in-house function for non-linear, sigmoidal dose-response curve-fitting.
μ GTP EC50 is the concentration of a compound providing 50% of the maximal response for the compound at a μ-opioid receptor.
μ GTP Emax (%) is the maximal effect elicited by a compound relative to the effect elicited by DAMGO, a standard μ agonist. Generally, the μ GTP Emax (%) value measures the efficacy of a compound to treat or prevent pain or other Conditions.
as §2

[5] = bound given in μM, read-out: Opioid Receptor Ki μ
[6] = bound given in μM, read-out: Opioid Receptor Ki κ
[7] = read-out: Opioid Receptor Ki (nM) κ
[8] = read-out: Opioid Receptor Ki (nM) μ

Question: Which Ki (μ-opioid receptor [1]; [5]) does the source give for `COc1ccc2c3c1O[C@@H]1[C@]34CCN(CC3CC3)[C@H]([C@@H]2O)[C@]4(O)CC[C@]12NC(=O)NC2=O` (stereo in doubt) [Compound 9, (4S,4′R,4a′S,7a′R,12b′S,13′R)-3′-(cyclopropylmethyl)-4a′,13′-dihydroxy-9′-methoxy-2′,3′,4′,4a′,5′,6′-hexahydro-1′H,7a′H-spiro[imidazazolidine-4,7′-[4,12]methanobenzofuro[3,2-e]isoquinoline]-2,5-dione] here?
Answer: > 20 µM

Question: And the Ki (κ opioid receptor [2]; [6])?
Answer: > 20 µM

Question: Which Ki (μ-opioid receptor [1]; [5]) does the source give for `COc1ccc2c(c1)[C@]13CCN(CC4CC4)[C@H](C2=O)[C@]1(O)CC[C@@]1(C3)NC(=O)NC1=O` [Compound 6, (4bR,4′S,8aS,9S)-11-(cyclopropylmethyl)-8a-hydroxy-3-methoxy-7,8,8a,9-tetrahydrospiro[9,4b-(epiminoethano)phenanthrene-6,4′-imidazolidine]-2′,5′,10(5H)-trione] here?
Answer: > 20 µM

Question: And the Ki (κ opioid receptor [2]; [7])?
Answer: 1.05 ± 0.0846 µM

Question: How did the Ki (μ-opioid receptor [1]; [5]) turn out when `COc1ccc2c(c1)[C@]13CCN(CC4CC4)[C@H]([C@@H]2O)[C@]1(O)CC[C@@]1(C3)NC(=O)NC1=O` [Compound 7, (4bR,4′S,8aS,9R,10R)-11-(cyclopropylmethyl)-8a,10-dihydroxy-3-methoxy-5,7,8,8a,9,10-hexahydrospiro[9,4b-(epiminoethano)phenanthrene-6,4′-imidazolidine]-2′,5′-dione] was run?
Answer: > 20 µM

Question: What about the Ki (κ opioid receptor [2]; [6]) of the same molecule?
Answer: > 20 µM

Question: Which Ki (μ-opioid receptor [1]; [5]) does the source give for `COc1ccc2c3c1O[C@@H]1[C@]34CCN(CC3CC3)[C@H](C2=O)[C@]4(O)CC[C@]12NC(=O)NC2=O` [Compound 8, (4S,4′S,4a′S,7a′R,12b′S)-3′-(cyclopropylmethyl)-4a′-hydroxy-9′-methoxy-2′,3′,4′,4a′,5′,6′-hexahydro-1′H,7a′H-spiro[imidazolidine-4,7′-[4,12]methanobenzofuro[3,2-e]isoquinoline]-2,5,13′-trione] here?
Answer: > 20 µM

Question: What about the Ki (κ opioid receptor [2]; [6]) of the same molecule?
Answer: > 20 µM

Question: Which results are given for `COc1ccc2c(c1)[C@]13CCN(CC4CC4)[C@H]([C@@H]2O)[C@@H]1CC[C@@]1(C3)NC(=O)NC1=O` [Compound 10, (4bS,4′S,8aR,9S,10R)-11-(cyclopropylmethyl)-10-hydroxy-3-methoxy-5,7,8,8a,9,10-hexahydrospiro[9,4b-(epiminoethano)phenanthrene-6,4′-imidazolidine]-2′,5′-dione]?
Answer: Ki (μ-opioid receptor [1]; [5]): > 20 µM; Ki (κ opioid receptor [2]; [7]): 3.58 ± 0.647 µM

Question: `COc1ccc2c(c1)[C@]13CCN(C)[C@H](C2=O)[C@]1(O)CC[C@@]1(C3)NC(=O)NC1=O` [Compound 11, (4bR,4′S,8aS,9S)-8a-hydroxy-3-methoxy-11-methyl-7,8,8a,9-tetrahydrospiro [9,4b-(epiminoethano)phenanthrene-6,4′-imidazolidine]-2′,5′,10(5H)-trione] was tested. Which Ki (μ-opioid receptor [1]; [5]) did it give?
Answer: > 20 µM

Question: What about the Ki (κ opioid receptor [2]; [6]) of the same molecule?
Answer: > 20 µM

Question: For `COc1ccc2c(c1)[C@]13CCN(C)[C@H]([C@@H]2O)[C@]1(O)CC[C@@]1(C3)NC(=O)NC1=O` [Compound 12, (4bR,4′S,8aS,9R,10R)-8a,10-dihydroxy-3-methoxy-11-methyl-5,7,8,8a,9,10-hexahydrospiro[9,4b-(epiminoethano)phenanthrene-6,4′-imidazolidine]-2′,5′-dione], which Ki (μ-opioid receptor [1]; [8]) is on record?
Answer: 12.6 µM

Question: And the Ki (κ opioid receptor [2]; [6])?
Answer: > 20 µM

Question: What does the source list for `O=C1NC(=O)[C@@]2(CC[C@@]3(O)[C@H]4[C@H](O)c5ccc(O)cc5[C@@]3(CCN4CC3CC3)C2)N1` [Compound 14, (4bR,4′S,8aS,9R,10R)-11-(cyclopropylmethyl)-3,8a,10-trihydroxy-5,7,8,8a,9,10-hexahydrospiro[9,4b-(epiminoethano)phenanthrene-6,4′-imidazolidine]-2′,5′-dione]?
Answer: Ki (μ-opioid receptor [1]; [8]): 1.02 ± 0.0521 µM; Ki (κ opioid receptor [2]; [7]): 0.0781 ± 0.021 µM; EC50 (κ opioid receptor [3]): 0.183 ± 0.0173 µM; Emax (κ opioid receptor [3]): 111 ± 2.91%

Question: What does the source list for `O=C1NC(=O)[C@@]2(CC[C@@]3(O)[C@H]4C(=O)c5ccc(O)c6c5[C@@]3(CCN4CC3CC3)[C@H]2O6)N1` [Compound 15, (4S,4′S,4a′S,7a′R,12b′S)-3′-(cyclopropylmethyl)-4a′,9′-dihydroxy-2′,3′,4′,4a′,5′,6′-hexahydro-1′H,7a′H-spiro [imidazolidine-4,7′-[4,12]methanobenzofuro [3,2-e]isoquinoline]-2,5,13′-trione]?
Answer: Ki (μ-opioid receptor [1]; [8]): 15.4 ± 3.13 µM; Ki (κ opioid receptor [2]; [7]): 2.52 ± 0.708 µM

Question: Which results are given for `O=C1NC(=O)[C@@]2(CC[C@@]3(O)[C@H]4[C@H](O)c5ccc(O)c6c5[C@@]3(CCN4CC3CC3)[C@H]2O6)N1` [Compound 16, (4S,4′R,4a′S,7a′R,12b′S,13′R)-3′-(cyclopropylmethyl)-4a′,9′,13′-trihydroxy-2′,3′,4′,4a′,5′,6′-hexahydro-1′H,7a′H-spiro[imidazolidine-4,7′-[4,12]methanobenzofuro [3,2-e]isoquinoline]-2,5-dione]?
Answer: Ki (μ-opioid receptor [1]; [5]): > 20 µM; Ki (κ opioid receptor [2]; [6]): > 20 µM

Question: Which results are given for `CN1CC[C@]23C[C@]4(CC[C@@]2(O)[C@H]1[C@H](O)c1ccc(O)cc13)NC(=O)NC4=O` [Compound 17, (4bR,4′S,8aS,9R,10R)-3,8a,10-trihydroxy-11-methyl-5,7,8,8a,9,10-hexahydrospiro[9,4b-(epiminoethano)phenanthrene-6,4′-imidazolidine]-2′,5′-dione]?
Answer: EC50 (μ-opioid receptor [4]): 0.116 ± 0.023 µM; Emax (μ-opioid receptor [4]; functional assays using U-2 OS cells, relative to the effect elicited by DAMGO): 98.8 ± 0.97%; EC50 (κ opioid receptor [3]): 5.78 ± 1.1 µM; Emax (κ opioid receptor [3]): 107 ± 1.53%
